Experimental data: US8486991B2, “Enantiomerically pure phosphoindoles as HIV inhibitors” (Idenix Pharmaceuticals, Inc., priority 2006, dated 2013)
Where two headings read alike, the source gives them in different places. *1 amine or outer side, *2 acyl side, *3 side chain or, on linkers, in order; H or OH if unused. Where a SMILES comes first, the peptide text is derived from it. Bridges are numbered along the chain shown (N, C = ends). Roman numbers before positions name the chains, in order. [ ]: non-standard residue; d: D form. Actinocin(9to1) = Cc1c2oc3c(C)ccc(C(=O)[*:1])c3nc-2c(C(=O)[*:2])c(N)c1=O; NMeV = CN[C@H](C(=O)O)C(C)C; Sar = CNCC(=O)O

What was measured:
[1] = system: HIV-2 ROD; experiment: HIV-2 ROD WT in H9 cell assay; type: cell-based; conditions: Human immunodeficiency virus 2, H9; Table 18; highest concentration assayed 1.25 μM; read-out: EC50 Values
Procedure: The susceptibility of HIV type 2 ROD in H9 cells to Compound I and Compound III was determined against zidovudine (AZT) as a control.

[2] = target: T1, human DNA polymerase alpha (Homo sapiens, UniProt P09884); experiment: Human cellular DNA polymerase alpha assay; type: biochemical
T1 sequence (P09884 1-1462): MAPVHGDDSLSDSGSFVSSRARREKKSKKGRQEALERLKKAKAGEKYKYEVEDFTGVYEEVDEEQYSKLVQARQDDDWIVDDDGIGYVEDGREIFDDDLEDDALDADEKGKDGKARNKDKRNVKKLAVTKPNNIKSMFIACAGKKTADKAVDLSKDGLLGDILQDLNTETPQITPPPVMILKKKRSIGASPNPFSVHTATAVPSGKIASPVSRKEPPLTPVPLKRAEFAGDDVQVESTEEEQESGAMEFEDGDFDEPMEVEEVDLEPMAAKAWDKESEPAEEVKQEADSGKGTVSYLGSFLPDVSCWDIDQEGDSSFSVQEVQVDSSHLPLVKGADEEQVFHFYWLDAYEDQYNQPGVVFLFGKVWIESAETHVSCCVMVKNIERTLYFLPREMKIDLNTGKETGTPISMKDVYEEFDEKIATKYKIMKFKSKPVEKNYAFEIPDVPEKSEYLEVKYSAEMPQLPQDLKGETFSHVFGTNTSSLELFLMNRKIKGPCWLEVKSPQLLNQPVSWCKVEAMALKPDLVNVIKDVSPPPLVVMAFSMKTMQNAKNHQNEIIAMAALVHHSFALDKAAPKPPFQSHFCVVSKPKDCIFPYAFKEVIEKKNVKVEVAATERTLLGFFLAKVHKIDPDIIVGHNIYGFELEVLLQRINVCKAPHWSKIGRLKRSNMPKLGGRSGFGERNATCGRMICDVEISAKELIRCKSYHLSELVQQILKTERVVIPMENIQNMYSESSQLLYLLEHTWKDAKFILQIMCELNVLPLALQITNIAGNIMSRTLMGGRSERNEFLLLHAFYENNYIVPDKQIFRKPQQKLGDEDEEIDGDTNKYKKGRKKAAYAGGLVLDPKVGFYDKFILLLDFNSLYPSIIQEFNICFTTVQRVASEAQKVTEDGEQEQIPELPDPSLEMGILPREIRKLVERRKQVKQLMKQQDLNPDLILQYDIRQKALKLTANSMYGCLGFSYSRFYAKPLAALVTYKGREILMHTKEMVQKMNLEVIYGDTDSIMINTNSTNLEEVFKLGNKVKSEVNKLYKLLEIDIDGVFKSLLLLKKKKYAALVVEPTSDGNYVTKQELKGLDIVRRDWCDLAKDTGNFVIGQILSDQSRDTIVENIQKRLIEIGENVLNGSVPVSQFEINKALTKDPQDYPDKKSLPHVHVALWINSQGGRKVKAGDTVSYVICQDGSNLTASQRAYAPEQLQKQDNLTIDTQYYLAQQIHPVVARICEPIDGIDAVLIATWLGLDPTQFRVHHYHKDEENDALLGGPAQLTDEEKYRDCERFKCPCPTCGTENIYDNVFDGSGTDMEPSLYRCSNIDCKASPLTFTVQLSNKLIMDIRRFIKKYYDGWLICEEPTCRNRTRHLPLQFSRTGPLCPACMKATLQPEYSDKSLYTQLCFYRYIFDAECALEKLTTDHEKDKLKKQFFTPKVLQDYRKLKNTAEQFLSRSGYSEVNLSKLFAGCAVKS
Description: (§1) HIV RT, like other viral polymerase, shares limited structural homology with the cellular DNA polymerases responsible for normal nuclear and mitochondrial DNA synthesis and repair. This raises the formal possibility that inhibitors of HIV RT might inhibit cellular polymerases, resulting in cellular toxicity. In particular, inhibition of polymerase gamma has the potential to result in mitochondrial toxicity. The ability of Compound I and Compound III to inhibit cellular DNA polymerases was assessed using standard in vitro assays (Table 5).

[3] = target: human DNA polymerase beta (Homo sapiens, UniProt P06746); experiment: Human cellular DNA polymerase beta assay; type: biochemical
Description: as §1

[4] = target: T2, human DNA polymerase gamma (Homo sapiens, UniProt P54098); experiment: Human cellular DNA polymerase gamma assay; type: biochemical
T2 sequence (P54098 1-1239): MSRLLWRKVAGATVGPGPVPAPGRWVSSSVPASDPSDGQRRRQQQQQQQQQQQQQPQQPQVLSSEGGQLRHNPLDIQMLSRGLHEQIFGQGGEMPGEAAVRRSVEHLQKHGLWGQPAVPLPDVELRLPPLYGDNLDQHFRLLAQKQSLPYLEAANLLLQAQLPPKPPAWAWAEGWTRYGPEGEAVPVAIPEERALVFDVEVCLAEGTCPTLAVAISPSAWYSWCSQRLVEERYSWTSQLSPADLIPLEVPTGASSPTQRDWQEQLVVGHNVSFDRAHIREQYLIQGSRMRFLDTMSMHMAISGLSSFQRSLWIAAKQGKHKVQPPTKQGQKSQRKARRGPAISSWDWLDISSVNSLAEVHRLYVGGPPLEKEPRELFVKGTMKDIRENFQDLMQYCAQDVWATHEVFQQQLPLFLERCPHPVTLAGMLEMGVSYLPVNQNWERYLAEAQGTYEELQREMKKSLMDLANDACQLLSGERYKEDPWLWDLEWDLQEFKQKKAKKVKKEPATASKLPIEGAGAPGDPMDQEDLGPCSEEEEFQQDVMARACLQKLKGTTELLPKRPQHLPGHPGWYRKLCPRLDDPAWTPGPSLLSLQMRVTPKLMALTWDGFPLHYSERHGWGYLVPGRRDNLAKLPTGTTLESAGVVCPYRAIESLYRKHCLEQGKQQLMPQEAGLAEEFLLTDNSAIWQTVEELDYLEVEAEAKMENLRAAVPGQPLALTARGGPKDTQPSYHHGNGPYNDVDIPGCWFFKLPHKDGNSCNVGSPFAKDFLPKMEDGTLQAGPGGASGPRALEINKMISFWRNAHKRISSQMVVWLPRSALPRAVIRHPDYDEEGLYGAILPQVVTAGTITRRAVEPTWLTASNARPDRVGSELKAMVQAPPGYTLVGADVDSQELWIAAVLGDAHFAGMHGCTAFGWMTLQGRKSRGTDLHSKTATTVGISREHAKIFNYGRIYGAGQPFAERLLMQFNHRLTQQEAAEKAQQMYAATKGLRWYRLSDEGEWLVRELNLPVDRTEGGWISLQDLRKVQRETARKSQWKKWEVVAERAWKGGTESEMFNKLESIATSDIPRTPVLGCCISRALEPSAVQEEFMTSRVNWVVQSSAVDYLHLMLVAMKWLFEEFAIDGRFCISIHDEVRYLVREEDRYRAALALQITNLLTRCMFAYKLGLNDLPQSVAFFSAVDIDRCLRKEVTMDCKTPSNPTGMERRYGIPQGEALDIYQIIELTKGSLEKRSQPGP
Description: as §1

[5] = system: HIV-1 BH10 wild-type virus; experiment: microbe, parasite or virus in culture; type: cell-based; conditions: Human immunodeficiency virus 1, MT4, read-out: EC50, BH10, Example 16 comparative tables; unit inferred; several lines per compound
[6] = system: HIV-1 BH10 K103N mutant virus; experiment: microbe, parasite or virus in culture; type: cell-based; conditions: Human immunodeficiency virus 1, MT4, read-out: EC50, K103N, Example 16 comparative tables; unit inferred
[7] = system: HIV-1 BH10 wild-type virus; experiment: CPE / cell protection assay, MT-4 cells, BH10 wild-type; type: cell-based; conditions: Human immunodeficiency virus 1, MT4; Cell Protection Assay tables; unit inferred; read-out: EC50, BH10
Procedure: (§2) The activity of the compounds was also assessed with the same virus and cell type using a different assay readout based on cytopathic effect (CPE).
(§3) MT-4 cells (Source: NIH Catalog #120) were seeded onto 96-well cell culture plates (1×10^4 cells per well in 50 μL).
(§4) The final DMSO concentration in the assay was 0.5% in 120 μL. Cell cultures were then incubated at 37° C./5% CO2 for 4 days. Then, Cell Titer 96 AQueous One Solution Cell Proliferation Assay (Promega) was used to measure cell viability. Briefly, the One Solution Reagent was added directly to culture wells (20 μL/well), incubated for 5 hours, and the absorbance was recorded at 492 nm using the Sunrise Tecan Spectrophotometer.
(§5) The EC50 values were determined from the percent inhibition versus concentration data using a sigmoidal non-linear regression analysis based on four parameters with Tecan Magellan software.

[8] = system: HIV-1 BH10 K103N mutant virus; experiment: microbe, parasite or virus in culture; type: cell-based; conditions: Human immunodeficiency virus 1, MT4, read-out: EC50, K103N
Procedure: as §2, §3, §4, §5

[9] = target: CYP3A4 (Homo sapiens, UniProt P08684); experiment: Recombinant CYP450 inhibition, fluorometric, CYP3A4; type: in vitro ADME; set-up: from tissue; host or cells: pooled human liver microsomes
Sequence of CYP3A4 (P08684 whole entry, the tested form may be a part): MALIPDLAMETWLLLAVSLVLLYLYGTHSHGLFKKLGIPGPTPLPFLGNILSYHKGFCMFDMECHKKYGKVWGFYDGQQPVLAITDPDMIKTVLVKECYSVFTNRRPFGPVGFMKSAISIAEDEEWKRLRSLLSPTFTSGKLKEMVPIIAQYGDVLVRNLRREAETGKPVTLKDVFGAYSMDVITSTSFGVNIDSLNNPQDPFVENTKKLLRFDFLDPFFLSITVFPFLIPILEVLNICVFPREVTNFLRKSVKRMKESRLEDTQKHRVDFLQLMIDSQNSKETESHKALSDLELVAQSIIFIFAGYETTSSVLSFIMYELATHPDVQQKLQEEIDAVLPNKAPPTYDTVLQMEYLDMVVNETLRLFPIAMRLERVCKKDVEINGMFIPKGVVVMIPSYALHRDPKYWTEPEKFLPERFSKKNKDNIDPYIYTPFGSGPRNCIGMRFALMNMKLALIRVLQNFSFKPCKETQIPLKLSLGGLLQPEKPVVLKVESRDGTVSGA
Procedure: (§6) Compounds were assayed using recombinant human microsomal proteins with fluorometric substrates. Signal was measured with a Fusion plate reader utilizing the appropriate excitation and emission wavelength set to detect the specific metabolite: […]

[10] = system: CYP3A4 (activation of PXR in DPX2 cells); experiment: CYP3A4 induction screen in DPX2 cells; type: cell-based, human; conditions: extent compared with rifampicine, mifepristone, androstanol
Description: The potential for in vitro induction of CYP3A4 was screened in DPX2 cells. The DPX2 cell line is a derivative of a human hepatocellular carcinoma cell line (HepG2) transformed with the human pregnane x receptor (PXR) and a reporter gene vector containing the enhancer region of CYP3A4. The potential for in vitro induction of CYP1A2 was screened in CYP1A2-DRE cells. The CYP1A2-DRE cell line is a stably transformed HepG2 cells with dioxin response elements (DRE) and reporter gene containing CYP1A2 promoter elements. The extent of CYP3A4 induction was determined by comparing the activation of PXR obtained with test article to that obtained with rifampicine (potent inducer), mifepristone (moderate inducer) and androstanol (weak inducer). The extent of CYP1A2 induction was determined by comparing the activation of the aryl hydrocarbon receptor (AhR) obtained with test article to that obtained with TCDD (potent inducer), omeprazole (moderate inducer), and 2-acetylaminofluorene (weak inducer).

[11] = target: CYP2C9 (Homo sapiens, UniProt P11712); experiment: Recombinant CYP450 inhibition, Luciferin-H, CYP2C9; type: in vitro ADME; set-up: from tissue; host or cells: pooled human liver microsomes; conditions: highest concentration tested 10 μM
Sequence of CYP2C9 (P11712 whole entry, the tested form may be a part): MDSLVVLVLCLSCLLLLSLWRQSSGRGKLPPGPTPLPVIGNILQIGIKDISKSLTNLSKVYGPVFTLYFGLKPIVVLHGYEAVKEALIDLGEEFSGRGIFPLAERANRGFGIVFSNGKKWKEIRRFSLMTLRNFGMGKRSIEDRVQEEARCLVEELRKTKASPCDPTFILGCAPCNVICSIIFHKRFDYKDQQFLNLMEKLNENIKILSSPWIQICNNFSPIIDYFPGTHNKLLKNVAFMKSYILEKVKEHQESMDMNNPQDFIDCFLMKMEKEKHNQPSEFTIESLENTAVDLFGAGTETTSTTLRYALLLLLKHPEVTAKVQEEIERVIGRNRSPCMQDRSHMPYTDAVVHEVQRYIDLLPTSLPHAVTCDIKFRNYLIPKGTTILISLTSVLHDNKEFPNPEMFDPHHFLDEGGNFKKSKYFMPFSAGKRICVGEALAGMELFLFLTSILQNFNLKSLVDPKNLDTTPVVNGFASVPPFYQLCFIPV
Procedure: CYP2C9 inhibition was performed by incubating a luminogenic CYP450 substrate Luciferin-H with CYP2C9 and an NADPH regeneration system. Luminescence measured using a Fusion plate reader.

[12] = target: CYP2D6 (Homo sapiens, UniProt P10635); experiment: Recombinant CYP450 inhibition, fluorometric, CYP2D6; type: in vitro ADME; set-up: from tissue; host or cells: pooled human liver microsomes; conditions: recombinant human CYP2D6 microsomal protein, read-out: percentage of inhibition at the highest concentration tested, CYP2D6
Sequence of CYP2D6 (P10635 whole entry): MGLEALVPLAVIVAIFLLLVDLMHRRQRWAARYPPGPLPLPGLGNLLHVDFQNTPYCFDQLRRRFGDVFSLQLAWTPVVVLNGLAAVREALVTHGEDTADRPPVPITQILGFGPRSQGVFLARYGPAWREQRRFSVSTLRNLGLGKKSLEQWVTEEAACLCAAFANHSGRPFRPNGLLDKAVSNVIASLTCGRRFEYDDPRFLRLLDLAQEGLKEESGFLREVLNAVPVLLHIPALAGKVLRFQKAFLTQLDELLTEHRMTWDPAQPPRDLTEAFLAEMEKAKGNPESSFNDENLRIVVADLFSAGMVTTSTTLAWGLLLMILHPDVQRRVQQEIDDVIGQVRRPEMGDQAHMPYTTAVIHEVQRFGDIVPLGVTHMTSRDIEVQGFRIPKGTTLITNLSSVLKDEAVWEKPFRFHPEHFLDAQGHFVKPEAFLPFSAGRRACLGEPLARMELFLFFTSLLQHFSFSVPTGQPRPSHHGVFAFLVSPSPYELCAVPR
Procedure: as §6

[13] = Table 6, N=4, read-out: Mean IC50 Values ± Standard Deviation, DNA Pol Gamma

With `Cc1cn([C@H]2C[C@H](N=[N+]=[N-])[C@@H](CO)O2)c(=O)[nH]c1=O` [AZT, zidovudine, reference compound] the EC50 [1] was 162 ± 76.7 nM.

`Cc1c2oc3c(C)ccc(C(=O)N[C@@H]4C(=O)N[C@H](C(C)C)C(=O)N5CCC[C@H]5C(=O)N(C)CC(=O)N(C)[C@@H](C(C)C)C(=O)O[C@@H]4C)c3nc-2c(C(=O)N[C@@H]2C(=O)N[C@H](C(C)C)C(=O)N3CCC[C@H]3C(=O)N(C)CC(=O)N(C)[C@@H](C(C)C)C(=O)O[C@@H]2C)c(N)c1=O` [Act. D, actinomycin D, reference compound] (I: T[dV]P[Sar][NMeV] / II: T[dV]P[Sar][NMeV]; ester I:1-I:C, II:1-II:C; linker I:N-II:N via Actinocin(9to1)) gave an IC50 ([2]; Table 5, read-out: Average IC50 Values ± Standard Deviation, DNA Pol Alpha) of 16100 ± 11200 nM, an IC50 ([2]; Table 6, N=4, read-out: Mean IC50 Values ± Standard Deviation, DNA Pol Alpha) of 16100 ± 11200 nM and an IC50 ([3]; Table 5, read-out: Average IC50 Values ± Standard Deviation, DNA Pol Beta) of 23000 ± 10400 nM. The IC50 ([3]; Table 6, N=4, read-out: Mean IC50 Values ± Standard Deviation, DNA Pol Beta) was 23000 ± 10400 nM, the IC50 ([4]; Table 5, preliminary data from a single experiment, read-out: Average IC50 Values, DNA Pol Gamma) was 16900 nM and the IC50 [4, 13] was 11800 ± 1900 nM.

With `CO[P@@](=O)(c1cc(C)cc(/C=C/C#N)c1)c1c(C(N)=O)[nH]c2ccc(Cl)c(F)c12` [Compound II, (2-Carbamoyl-5-chloro-4-fluoro-1H-indol-3-yl)-[3-((E)-2-cyano-vinyl)-5-methyl-phenyl]-(S)-phosphinic acid methyl ester] the EC50 [5] was 192 nM, the EC50 [6] was 920 nM and the EC50 [7] was 62 ± 19 nM. For the same compound, the EC50 [8] was 277 ± 99 nM and the IC50 [9] was 3210 nM.

For `CO[P@@](=O)(c1cc(C)cc(/C=C/C#N)c1)c1c(C(N)=O)[nH]c2ccc(Cl)cc12` [IV, (2-carbamoyl-5-chloro-1H-indol-3-yl)-[3-((E)-2-cyano-vinyl)-5-methyl-phenyl]-(S)-phosphinic acid methyl ester], the EC50 [7] was 0.2 ± 0.1 nM, the EC50 [8] was 0.3 nM and the “Induction, DPX2 (CYP3A4)” value [10] was “Moderate (n = 1)”. For the same compound, the IC50 [11] was 3380 nM, the inhibition at 10 µM [12] was 29.1% and the IC50 ([9]; recombinant, highest concentration tested 10 μM, read-out: IC50, CYP3A4) was 2960 nM.

“dideoxycytidine triphosphate [ddCTP, reference compound]” was tested, and the IC50 [4, 13] was 1500 ± 600 nM.
